# Laboratory results taken from ChEMBL document CHEMBL3044645, “Synthesis and Pesticidal Activities of N-Phosphinoyl Heterocycles” (J Pestic Sci, 1997).
# Legend:
# Tetranychus urticae [1] = test: Acaricidal activity against Tetranychus urticae (two-spotted spider mite) in French bean leaf at 50 to 200 ppm after 2 days; type: functional
# Meloidogyne incognita [2] = test: Nematicidal activity against Meloidogyne incognita (root-knot nematode) at 4 to 8 kg/ha after 3 weeks; type: functional
# Myzus persicae [3] = test: Aphicidal activity against Myzus persicae (green peach aphid) in cabbage leaf at 200 to 800 ppm after 2 days; type: functional
# Meloidogyne incognita [4] = test: Nematicidal activity against Meloidogyne incognita (root-knot nematode) at 8 kg/ha after 3 weeks; type: functional
# Tetranychus urticae [5] = test: Acaricidal activity against Tetranychus urticae (two-spotted spider mite) in French bean leaf at 200 to 800 ppm after 2 days; type: functional
# Myzus persicae [6] = test: Aphicidal activity against Myzus persicae (green peach aphid) in cabbage leaf at 800 ppm after 2 days; type: functional
# [7] = Dissociation constant, pKa of the compound by titration method; type: physicochemical
# Musca domestica = test: Insecticidal activity against adult Musca domestica (house fly) assessed per adult; type: functional
# Meloidogyne incognita [8] = test: Insecticidal activity against Meloidogyne incognita (root-knot nematode); type: functional, organism-based
# Tetranychus urticae [9] = test: Insecticidal activity against Tetranychus urticae (two-spotted spider mite); type: functional
# Myzus persicae [10] = test: Insecticidal activity against Myzus persicae (green peach aphid); type: functional
# Tetranychus urticae [11] = test: Acaricidal activity against Tetranychus urticae (two-spotted spider mite) in French bean leaf at <50 ppm after 2 days; type: functional
# Myzus persicae [12] = test: Aphicidal activity against Myzus persicae (green peach aphid) in cabbage leaf at <50 ppm after 2 days; type: functional
# Meloidogyne incognita [13] = test: Nematicidal activity against Meloidogyne incognita (root-knot nematode) at 1 kg/ha after 3 weeks; type: functional
# [14] = Acute toxicity in Mus musculus (mouse); type: organism-based; settings: in vivo
# Tetranychus urticae [15] = test: Acaricidal activity against Tetranychus urticae (two-spotted spider mite) in French bean leaf at 800 ppm after 2 days; type: functional
# Acetylcholinesterase = Acetylcholinesterase (Musca domestica, UniProt Q7YWJ9); test: Inhibition of Musca domestica (house fly) head AchE; settings: read-out: I50
# Acetylcholinesterase, sequence (Q7YWJ9 whole entry): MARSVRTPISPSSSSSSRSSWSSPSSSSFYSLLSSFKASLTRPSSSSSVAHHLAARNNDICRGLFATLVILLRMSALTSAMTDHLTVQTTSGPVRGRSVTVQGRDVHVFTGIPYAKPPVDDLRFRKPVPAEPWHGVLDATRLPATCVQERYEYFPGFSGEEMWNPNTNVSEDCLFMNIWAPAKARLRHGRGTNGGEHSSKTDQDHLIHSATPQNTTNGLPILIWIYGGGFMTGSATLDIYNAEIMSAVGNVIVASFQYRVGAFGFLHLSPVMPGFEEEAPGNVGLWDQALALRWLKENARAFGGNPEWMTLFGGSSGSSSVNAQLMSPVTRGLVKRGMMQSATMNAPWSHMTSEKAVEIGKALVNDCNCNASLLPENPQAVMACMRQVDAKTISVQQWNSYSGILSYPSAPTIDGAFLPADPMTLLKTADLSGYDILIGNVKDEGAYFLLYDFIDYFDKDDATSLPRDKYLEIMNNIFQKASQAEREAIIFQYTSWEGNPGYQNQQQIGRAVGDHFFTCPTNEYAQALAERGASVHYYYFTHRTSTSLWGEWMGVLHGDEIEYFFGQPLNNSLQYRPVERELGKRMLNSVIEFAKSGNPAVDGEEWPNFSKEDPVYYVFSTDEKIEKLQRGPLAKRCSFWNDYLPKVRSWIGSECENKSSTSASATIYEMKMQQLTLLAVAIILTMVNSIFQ
# Meloidogyne incognita [16] = test: Nematicidal activity against Meloidogyne incognita (root-knot nematode) at 1 to 4 kg/ha after 3 weeks; type: functional
# Myzus persicae [17] = test: Aphicidal activity against Myzus persicae (green peach aphid) in cabbage leaf at 50 to 200 ppm after 2 days; type: functional
smiles,measurement,setting,value
CCOP(=O)(SC(C)CC)N1CC(C(C)(C)C)OC1=O (stereo not given),Activity,Tetranychus urticae [1],>90%
same,Activity,Meloidogyne incognita [2],0%
same,Activity,Myzus persicae [3],>90%
CCC(C)SP(=O)(OC)N1CCOC1=O (stereo not given),Activity,Meloidogyne incognita [4],>25%
same,Activity,Tetranychus urticae [5],>90%
same,Activity,Myzus persicae [3],>90%
CCOP(=O)(SC(C)CC)N1C(=O)OCC1C(=O)OC (stereo not given),Activity,Myzus persicae [6],<90%
same,Activity,Meloidogyne incognita [4],>25%
same,Activity,Tetranychus urticae [5],>90%
CCOP(=O)(SC(C)CC)N1OCCC1=O (stereo not given),pKa,[7],10.5
same,Activity,Meloidogyne incognita [4],>25%
same,Activity,Tetranychus urticae [5],>90%
same,Activity,Myzus persicae [3],>90%
CCOP(=O)(SC(C)CC)N1CCSC1=O (racemic) [FOSTHIAZATE],Activity,Musca domestica,18 µg
same,EC50,Meloidogyne incognita [8],29.6 ppm
same,LC50,Tetranychus urticae [9],>22.4 ppm
same,LC50,Myzus persicae [10],>4.06 ppm
CCOP(=O)(SC(C)CC)N1C(=O)OCC1CC (stereo not given),Activity,Tetranychus urticae [11],>90%
same,Activity,Myzus persicae [12],>90%
same,Activity,Meloidogyne incognita [13],0%
CCOP(=O)(SC(C)CC)N1CCSC1=O (stereo not given) [FOSTHIAZATE],Activity,Tetranychus urticae [11],>90%
same,pKa,[7],11.6
same,Activity,Myzus persicae [12],>90%
same,LD50,[14],127 mg/kg
same,Activity,Meloidogyne incognita [13],0%
CCOP(=O)(SC(C)CC)N1CCSC1=S (stereo not given),Activity,Tetranychus urticae [1],>90%
same,Activity,Meloidogyne incognita [4],>25%
same,Activity,Myzus persicae [3],>90%
CCOP(=O)(SC(C)CC)N1CC(=O)SC1=O (stereo not given),Activity,Myzus persicae [6],<90%
same,Activity,Meloidogyne incognita [4],>25%
same,Activity,Tetranychus urticae [15],<90%
CCOP(=S)(SC(C)CC)N1CCOC1=O (stereo not given),Activity,Meloidogyne incognita [4],>25%
same,Activity,Tetranychus urticae [5],>90%
same,Activity,Myzus persicae [3],>90%
CCOP(=O)(SC(C)CC)N1CCOC1=O (stereo not given),Activity,Tetranychus urticae [11],>90%
same,pKa,[7],11.8
same,Activity,Myzus persicae [12],>90%
same,LD50,[14],< 30 mg/kg
same,Activity,Meloidogyne incognita [13],0%
CCOP(=O)(SC(C)C)N1CCOC1=O (stereo not given),Activity,Tetranychus urticae [5],>90%
same,Activity,Meloidogyne incognita [2],0%
same,Activity,Myzus persicae [3],>90%
CCOP(=O)(SC(C)CC)N1CCSC1=O (stereo in doubt; (-)-8) [FOSTHIAZATE],Activity,Musca domestica,0.108 µg
same,EC50,Meloidogyne incognita [8],0.079 ppm
same,LC50,Tetranychus urticae [9],35.7 ppm
same,LC50,Myzus persicae [10],>13.2 ppm
same,IC50,Acetylcholinesterase,> 1000 µM
CCOP(=O)(SC(C)CC)N1CC(C)OC1=O (stereo not given),Activity,Tetranychus urticae [11],>90%
same,Activity,Myzus persicae [12],>90%
same,Activity,Meloidogyne incognita [13],0%
CCCCC1COC(=O)N1P(=O)(OCC)SC(C)CC (stereo not given),Activity,Myzus persicae [6],<90%
same,Activity,Tetranychus urticae [5],>90%
same,Activity,Meloidogyne incognita [16],0%
CCOP(=O)(OCC)N1CCOC1=O,Activity,Myzus persicae [6],<90%
same,Activity,Meloidogyne incognita [4],>25%
same,Activity,Tetranychus urticae [15],<90%
CCOP(=O)(SCC(C)C)N1CCOC1=O (stereo not given),Activity,Tetranychus urticae [11],>90%
same,Activity,Myzus persicae [12],>90%
same,Activity,Meloidogyne incognita [16],0%
CCOP(=O)(SC(C)CC)N1CCCOC1=O (stereo not given),Activity,Tetranychus urticae [5],>90%
same,Activity,Meloidogyne incognita [2],0%
same,Activity,Myzus persicae [3],>90%
CCCOP(=O)(SC(C)CC)N1CCOC1=O (stereo not given),Activity,Tetranychus urticae [5],>90%
same,Activity,Meloidogyne incognita [2],0%
same,Activity,Myzus persicae [3],>90%
CCOP(=O)(SC(C)CC)N1C(=O)OCC1C (stereo not given),Activity,Tetranychus urticae [11],>90%
same,Activity,Myzus persicae [12],>90%
same,Activity,Meloidogyne incognita [13],0%
CCOP(=O)(SC(C)CC)N1CCSC1=C(C#N)C#N (stereo not given),Activity,Meloidogyne incognita [4],>25%
same,Activity,Tetranychus urticae [15],<90%
same,Activity,Myzus persicae [3],>90%
"CCOP(=O)(SC(C)CC)N1CCSC1=O (single isomer, unassigned; (+)) [FOSTHIAZATE]",Activity,Musca domestica,1.945 µg
same,EC50,Meloidogyne incognita [8],2.339 ppm
same,LC50,Tetranychus urticae [9],>800 ppm
same,LC50,Myzus persicae [10],>53.7 ppm
CCCSP(=O)(NC)N1CCOC1=O (stereo not given),Activity,Meloidogyne incognita [4],>25%
same,Activity,Tetranychus urticae [5],>90%
same,Activity,Myzus persicae [3],>90%
CCOP(=O)(SC(C)CC)N1C(=O)CCC1=O (stereo not given),Activity,Myzus persicae [6],<90%
same,pKa,[7],9.6
same,Activity,Meloidogyne incognita [4],>25%
same,Activity,Tetranychus urticae [15],<90%
CCOP(=O)(SC(C)CC)N1CC(S(C)(=O)=O)OC1=O (stereo not given),Activity,Tetranychus urticae [5],>90%
same,Activity,Meloidogyne incognita [2],0%
same,Activity,Myzus persicae [3],>90%
CCCSP(=O)(SC)N1CCOC1=O (stereo not given),Activity,Myzus persicae [6],<90%
same,Activity,Meloidogyne incognita [4],>25%
same,Activity,Tetranychus urticae [15],<90%
CCOP(=O)(SC(C)CC)n1ccoc1=O (stereo not given),Activity,Myzus persicae [6],<90%
same,Activity,Meloidogyne incognita [4],>25%
same,Activity,Tetranychus urticae [15],<90%
CCOP(=O)(SC(C)CC)N1CC(C#N)OC1=O (stereo not given),Activity,Myzus persicae [6],<90%
same,Activity,Tetranychus urticae [5],>90%
same,Activity,Meloidogyne incognita [2],0%
CCC(C)SP(=O)(OCCF)N1CCOC1=O (stereo not given),Activity,Meloidogyne incognita [2],0%
same,Activity,Tetranychus urticae [15],<90%
same,Activity,Myzus persicae [3],>90%
CCOP(=O)(SC(C)CC)N1C(=O)OC(C)C1C (stereo not given),Activity,Tetranychus urticae [11],>90%
same,Activity,Meloidogyne incognita [13],0%
CCOP(=O)(SC(C)CC)N1CCCC1=O (stereo not given),Activity,Myzus persicae [17],>90%
same,Activity,Tetranychus urticae [5],>90%
same,Activity,Meloidogyne incognita [13],0%
CCOP(=O)(SC(C)CC)N1C(=O)OCC1OC (stereo not given),Activity,Myzus persicae [17],>90%
same,Activity,Tetranychus urticae [1],>90%
same,Activity,Meloidogyne incognita [13],0%
